{
  "source": "patent US8680253B2",
  "about": "(OliPass Corporation, priority 2008, dated 2014)",
  "key": {"HeLa cells": {"system": "HeLa cells", "experiment": "Cell penetration of fluorescein-tagged PNA oligomers, confocal fluorescence microscopy", "assay_type": "cell-based, human", "details": "40× objective", "protocol": "(§1) In order to evaluate the cell penetration ability of PNA oligomers of this invention, cancer cells of human origin were treated with PNA oligomers covalently tagged with fluorescein. The applied method is provided in brief as follows.\n(§2) To each cover glass (autoclaved) placed in each well of a 24-well plate, were seeded 20,000˜100,000 cells depending on the growth rate of the cell line used, and the cells were cultured at 37° C. and 5% CO2 for 16 to 24 h. Then the medium was replaced with 500 μl fresh Opti-MEM medium (with or without 1% FBS), to which was added an aliquot of aq stock solution of a PNA oligomer covalently tagged with fluorescein. After cells were cultured for a designated interval, the cells were washed with PBS, and fixed by incubating in 3.7% or 4% paraformaldehyde. The cells were thoroughly washed several times with PBS or PBS containing 0.1% Tween-20. Then the cover glass was mounted onto a slide glass using a drop of mounting solution and sealed with nail polish for confocal fluorescence microscopy. Fluorescence images were taken either on a Zeiss LSM 510 confocal microscope (Germany) at 63× objective or on a Nikon C1Si confocal microscope at 40× objective."}, "MCF-7 cells": {"system": "MCF-7 cells", "experiment": "Cell penetration of fluorescein-tagged PNA oligomers, confocal fluorescence microscopy", "assay_type": "cell-based, human", "details": "2.5 μM, 0.5 and 1 h, without FBS, 63× objective", "protocol": "as §1, §2"}, "A549 cells": {"system": "A549 cells", "experiment": "Cell penetration of fluorescein-tagged PNA oligomers, confocal fluorescence microscopy", "assay_type": "cell-based, human", "details": "2 μM, 24 h, without FBS, 40× objective", "protocol": "as §1, §2"}, "JAR cells": {"system": "JAR cells", "experiment": "Cell penetration of fluorescein-tagged PNA oligomers, confocal fluorescence microscopy", "assay_type": "cell-based, human", "details": "2 μM, 24 h, without FBS, 40× objective", "protocol": "as §1, §2"}, "apoB-100": {"system": "apoB-100", "details": "a certain population of atherosclerosis patients; cited from earlier work"}},
  "note": "{Fam-L(1)L(1)} = N-terminal fluorescein (Fam) label attached through two L(1) linkers; {Lys-NH2} = C-terminal lysine amide",
  "data": [
    {"substance": "Fam-L(1)L(1)-TC(1O3)T-CC(1O3)C-AGC(1O3)-GTG-C(1O3)GC-C(1O3)AT-Lys-NH2 (TCTCCCAGCGTGCGCCAT; Fam-L(1)L(1) label, modified PNA, Lys-NH2, chemistry not fully specified) [Oligo 6, fluorescein-tagged modified PNA oligomer]", "values": [
      {"measurement": "cell penetration, fluorescence intensity", "setting": "HeLa cells; 1 μM, 6 or 24 h, with 1% FBS", "result": "fluorescence intensity is clear and becomes intense over 24 h"},
      {"measurement": "cell penetration, fluorescence intensity", "setting": "MCF-7 cells", "result": "fluorescence intensity is clear and becomes intense over 1 h"}
    ]},
    {"substance": "Fam-L(1)L(1)-TCT-CCC-AGC-GTG-CGC-CAT-Lys-NH2 (TCTCCCAGCGTGCGCCAT; all peptide nucleic acid (PNA), 5' {Fam-L(1)L(1)}, 3' {Lys-NH2}) [Oligo 7, fluorescein-tagged 'unmodified' PNA oligomer, reference compound]", "values": [
      {"measurement": "cell penetration, fluorescence intensity", "setting": "MCF-7 cells", "result": "fluorescence intensity is faint"}
    ]},
    {"substance": "Fam-L(2)-TT-C(1O2)AT-A(5)GT-A(5)TA-AG(5)T-Lys-NH2 (TTCATAGTATAAGT; Fam-L(2) label, modified PNA, Lys-NH2, chemistry not fully specified) [Oligo 22, fluorescein-tagged modified PNA oligomer]", "values": [
      {"measurement": "cell penetration, fluorescence intensity", "setting": "HeLa cells; 2 μM, 24 h, without FBS", "result": "good cell penetration"},
      {"measurement": "cell penetration, fluorescence intensity", "setting": "A549 cells", "result": "good cell penetration"},
      {"measurement": "cell penetration, fluorescence intensity", "setting": "JAR cells", "result": "good cell penetration"}
    ]},
    {"substance": "Mipomersen", "values": [
      {"measurement": "clinical activity", "setting": "apoB-100", "result": "due clinical activity"}
    ]}
  ]
}
